# Source: patent US7074829B2, “Antiestrogens, process for their production and their pharmaceutical use” (Schering AG, priority 1998, dated 2006)
# Tested on: uterus
# Assay: Uterus growth test in infant rats (antiestrogenic action)
# Type: in vivo, rat
# Settings: inhibition compared to the estradiol benzoate (EB) control
row,SMILES,Antiuterotrophic Action at 0.3 mg s.c. [% Inhibition]
1,"C[C@]12C[C@H](c3ccc(OCCCCC[S+]([O-])CCCC(F)(F)C(F)(F)F)cc3)[C@H](c3ccc(O)cc3)C[C@@H]1CC[C@@H]2O (stereo partly drawn) [Example 3, (1S,3S,4R,6S,9S)-9-Hydroxy-4-(4-hydroxyphenyl)-1-methyl-3-[4-(5-(4,4,5,5,5-pentafluoro-pentylsulfinyl)pentyloxy)phenyl]-bicyclo[4.3.0]nonane]",37
2,CC(=O)O[C@H]1CC[C@H]2C[C@@H](c3ccc(O)cc3)[C@@H](c3ccc(OCCCCC[S+]([O-])CCCC(F)(F)C(F)(F)F)cc3)C[C@@]21C (some centres unmarked) [Example 5],55
